Experimental data taken from paper PMC10660663.

How the values were obtained:
[1] = SuFEx S-O bond formation: di-sulfonimidoyl fluoride (mixture of diastereomers) + diphenol (1:1), DBU 2.1 equiv, [1+1] macrocyclisation, one pot; conditions: the molecule shown is the open-chain precursor, MeCN, 20.0 mM, 50.0 °C, 3.0 h
[2] = Enantiospecific SuFEx S-O bond formation: enantiopure di-sulfonimidoyl fluoride + sodium diphenolate (1:1), [1+1] macrocyclisation, one pot; conditions: the molecule shown is the open-chain precursor, MeCN, 12.5 mM, 60.0 °C, 6.0 h

## Cc1ccc(S(=O)(F)=NC(=O)c2ccc(C(=O)N=S(=O)(Oc3ccc(C(C)(C)c4cccc(C(C)(C)c5ccc(O)cc5)c4)cc3)c3ccc(C)cc3)cc2)cc1 (centres unmarked)
[1]; 25-membered ring
  ring closure, isolated yield: 74%

## Cc1ccc(S(=O)(F)=NC(=O)c2ccc(C(=O)N=S(=O)(Oc3ccc(SSc4ccc(O)cc4)cc3)c3ccc(C)cc3)cc2)cc1 (centres unmarked) [3a]
[1]; 22-membered ring
  ring closure, isolated yield: 96%

## CCC(c1ccc(O)cc1)C(CC)c1ccc(OS(=O)(=NC(=O)c2ccc(C(=O)N=S(=O)(F)c3ccc(C)cc3)cc2)c2ccc(C)cc2)cc1 (centres unmarked) [3b]
[1]; 22-membered ring
  ring closure, isolated yield: 61%

## Cc1ccc(S(=O)(F)=NC(=O)c2ccc(C(=O)N=S(=O)(Oc3cccc(Oc4cccc(Oc5cccc(O)c5)c4)c3)c3ccc(C)cc3)cc2)cc1 (centres unmarked) [3d]
[1]; 23-membered ring
  ring closure, isolated yield: 67%

## Cc1ccc(S(=O)(F)=NC(=O)c2ccc(C(=O)N=S(=O)(Oc3ccccc3CNCCCCCCNCc3ccccc3O)c3ccc(C)cc3)cc2)cc1 (centres unmarked) [3e]
[1]; 26-membered ring
  ring closure, isolated yield: 91%

## Cc1ccc(S(=O)(F)=NC(=O)c2ccc(C(=O)N=S(=O)(Oc3ccccc3CNCCNCc3ccccc3O)c3ccc(C)cc3)cc2)cc1 (centres unmarked) [3f]
[1]; 22-membered ring
  ring closure, isolated yield: 87%

## Cc1ccc(S(=O)(F)=NC(=O)c2ccc(C(=O)N=S(=O)(Oc3ccc(OCCOc4ccc(O)cc4)cc3)c3ccc(C)cc3)cc2)cc1 (centres unmarked) [3g]
[1]; 24-membered ring
  ring closure, isolated yield: 79%

## Cc1ccc(S(=O)(F)=NC(=O)c2ccc(C(=O)N=S(=O)(Oc3ccc(OCCCCCCCCOc4ccc(O)cc4)cc3)c3ccc(C)cc3)cc2)cc1 (centres unmarked) [3h]
[1]; 30-membered ring
  ring closure, isolated yield: 62%

## Cc1ccc(S(=O)(F)=NC(=O)c2ccc(Oc3ccc(C(=O)N=S(=O)(Oc4ccc(SSc5ccc(O)cc5)cc4)c4ccc(C)cc4)cc3)cc2)cc1 (centres unmarked) [3i]
[1]; 27-membered ring
  ring closure, isolated yield: 91%

## CCC(c1ccc(O)cc1)C(CC)c1ccc(OS(=O)(=NC(=O)c2ccc(Oc3ccc(C(=O)N=S(=O)(F)c4ccc(C)cc4)cc3)cc2)c2ccc(C)cc2)cc1 (centres unmarked) [3j]
[1]; 27-membered ring
  ring closure, isolated yield: 88%

## Cc1ccc([S@](=O)(F)=NC(=O)c2ccc(Oc3ccc(C(=O)N=[S@](=O)(Oc4ccc(Cc5ccc([O-])cc5)cc4)c4ccc(C)cc4)cc3)cc2)cc1 [(R,R)-3Aa]
[2]; 26-membered ring
  ring closure, isolated yield: 12%

## Cc1ccc([S@](=O)(F)=NC(=O)c2ccc(Oc3ccc(C(=O)N=[S@](=O)(Oc4ccc(Oc5ccc([O-])cc5)cc4)c4ccc(C)cc4)cc3)cc2)cc1 [(R,R)-3Ab]
[2]; 26-membered ring
  ring closure, isolated yield: 10%

## Cc1ccc([S@](=O)(F)=NC(=O)c2ccc(Oc3ccc(C(=O)N=[S@](=O)(Oc4ccc(C(C)(C)c5ccc([O-])cc5)cc4)c4ccc(C)cc4)cc3)cc2)cc1 [(R,R)-3Ac]
[2]; 26-membered ring
  ring closure, isolated yield: 14%

## Cc1ccc([S@](=O)(F)=NC(=O)c2ccc(Oc3ccc(C(=O)N=[S@](=O)(Oc4ccc(C(c5ccc([O-])cc5)(C(F)(F)F)C(F)(F)F)cc4)c4ccc(C)cc4)cc3)cc2)cc1 [(R,R)-3Ad]
[2]; 26-membered ring
  ring closure, isolated yield: 12%

## Cc1ccc([S@](=O)(F)=NC(=O)c2ccc(C(=O)N=[S@](=O)(Oc3ccc(C(C)(C)c4cccc(C(C)(C)c5ccc([O-])cc5)c4)cc3)c3ccc(C)cc3)cc2)cc1 [(R,R)-3c]
[2]; 25-membered ring
  ring closure, isolated yield: 35%

## Cc1ccc([S@](=O)(F)=NC(=O)c2ccc(Oc3ccc(C(=O)N=[S@](=O)(Oc4ccc(C(C)(C)c5cccc(C(C)(C)c6ccc([O-])cc6)c5)cc4)c4ccc(C)cc4)cc3)cc2)cc1 [(R,R)-3o (diphenyl ether)]
[2]; 30-membered ring
  ring closure, isolated yield: 65%

## Cc1ccc([S@](=O)(F)=NC(=O)c2ccc(C(=O)N=[S@](=O)(Oc3ccc(Cc4ccc([O-])cc4)cc3)c3ccc(C)cc3)cc2)cc1 [(R,R)-3u]
[2]; 21-membered ring
  ring closure, isolated yield: 42%

## Cc1ccc([S@](=O)(F)=NC(=O)c2ccc(C(=O)N=[S@](=O)(Oc3ccc(Oc4ccc([O-])cc4)cc3)c3ccc(C)cc3)cc2)cc1 [(R,R)-3v]
[2]; 21-membered ring
  ring closure, isolated yield: 26%

## Cc1ccc([S@](=O)(F)=NC(=O)c2ccc(C(=O)N=[S@](=O)(Oc3ccc(C(C)(C)c4ccc([O-])cc4)cc3)c3ccc(C)cc3)cc2)cc1 [(R,R)-3w]
[2]; 21-membered ring
  ring closure, isolated yield: 54%

## Cc1ccc([S@](=O)(F)=NC(=O)c2ccc(C(=O)N=[S@](=O)(Oc3ccc(C(c4ccc([O-])cc4)(C(F)(F)F)C(F)(F)F)cc3)c3ccc(C)cc3)cc2)cc1 [(R,R)-3x]
[2]; 21-membered ring
  ring closure, isolated yield: 35%

## Cc1ccc([S@](=O)(F)=NC(=O)c2ccc(-c3ccc(C(=O)N=[S@](=O)(Oc4ccc(C(C)(C)c5cccc(C(C)(C)c6ccc([O-])cc6)c5)cc4)c4ccc(C)cc4)cc3)cc2)cc1 [(R,R)-3y]
[2]; 29-membered ring
  ring closure, isolated yield: 27%

## Cc1ccc([S@@](=O)(F)=NC(=O)c2ccc(Oc3ccc(C(=O)N=[S@@](=O)(Oc4ccc(Cc5ccc([O-])cc5)cc4)c4ccc(C)cc4)cc3)cc2)cc1 [(S,S)-3Aa]
[2]; 26-membered ring
  ring closure, isolated yield: 12%

## Cc1ccc([S@@](=O)(F)=NC(=O)c2ccc(Oc3ccc(C(=O)N=[S@@](=O)(Oc4ccc(Oc5ccc([O-])cc5)cc4)c4ccc(C)cc4)cc3)cc2)cc1 [(S,S)-3Ab]
[2]; 26-membered ring
  ring closure, isolated yield: 14%

## Cc1ccc([S@@](=O)(F)=NC(=O)c2ccc(Oc3ccc(C(=O)N=[S@@](=O)(Oc4ccc(C(C)(C)c5ccc([O-])cc5)cc4)c4ccc(C)cc4)cc3)cc2)cc1 [(S,S)-3Ac]
[2]; 26-membered ring
  ring closure, isolated yield: 16%

## Cc1ccc([S@@](=O)(F)=NC(=O)c2ccc(Oc3ccc(C(=O)N=[S@@](=O)(Oc4ccc(C(c5ccc([O-])cc5)(C(F)(F)F)C(F)(F)F)cc4)c4ccc(C)cc4)cc3)cc2)cc1 [(S,S)-3Ad]
[2]; 26-membered ring
  ring closure, isolated yield: 20%

## Cc1ccc([S@@](=O)(F)=NC(=O)c2ccc(C(=O)N=[S@@](=O)(Oc3ccc(SSc4ccc([O-])cc4)cc3)c3ccc(C)cc3)cc2)cc1 [(S,S)-3a]
[2]; 22-membered ring
  ring closure, isolated yield: 93%

## Cc1ccc([S@@](=O)(F)=NC(=O)c2ccc(C(=O)N=[S@@](=O)(Oc3ccc(C(C)(C)c4cccc(C(C)(C)c5ccc([O-])cc5)c4)cc3)c3ccc(C)cc3)cc2)cc1 [(S,S)-3c]
[2]; 25-membered ring
  ring closure, isolated yield: 42%

## Cc1ccc([S@@](=O)(F)=NC(=O)c2ccc(C(=O)N=[S@@](=O)(Oc3cccc(Oc4cccc(Oc5cccc([O-])c5)c4)c3)c3ccc(C)cc3)cc2)cc1 [(S,S)-3d]
[2]; 23-membered ring
  ring closure, isolated yield: 71%

## Cc1ccc([S@@](=O)(F)=NC(=O)c2ccc(C(=O)N=[S@@](=O)(Oc3ccccc3CNCCNCc3ccccc3[O-])c3ccc(C)cc3)cc2)cc1 [(S,S)-3f]
[2]; 22-membered ring
  ring closure, isolated yield: 75%

## Cc1ccc([S@@](=O)(F)=NC(=O)c2ccc(Oc3ccc(C(=O)N=[S@@](=O)(Oc4cccc(Oc5cccc(Oc6cccc([O-])c6)c5)c4)c4ccc(C)cc4)cc3)cc2)cc1 [(S,S)-3k]
[2]; 28-membered ring
  ring closure, isolated yield: 85%

## Cc1ccc([S@@](=O)(F)=NC(=O)c2ccc(Oc3ccc(C(=O)N=[S@@](=O)(Oc4ccc(C(C)(C)c5cccc(C(C)(C)c6ccc([O-])cc6)c5)cc4)c4ccc(C)cc4)cc3)cc2)cc1 [(S,S)-3o (diphenyl ether)]
[2]; 30-membered ring
  ring closure, isolated yield: 64%

## Cc1ccc([S@@](=O)(F)=NC(=O)c2cccc(C(=O)N=[S@@](=O)(Oc3ccc(SSc4ccc([O-])cc4)cc3)c3ccc(C)cc3)n2)cc1 [(S,S)-3r]
[2]; 21-membered ring
  ring closure, isolated yield: 71%

## Cc1ccc([S@@](=O)(F)=NC(=O)c2ccc(C(=O)N=[S@@](=O)(Oc3ccc(Cc4ccc([O-])cc4)cc3)c3ccc(C)cc3)cc2)cc1 [(S,S)-3u]
[2]; 21-membered ring
  ring closure, isolated yield: 54%

## Cc1ccc([S@@](=O)(F)=NC(=O)c2ccc(C(=O)N=[S@@](=O)(Oc3ccc(Oc4ccc([O-])cc4)cc3)c3ccc(C)cc3)cc2)cc1 [(S,S)-3v]
[2]; 21-membered ring
  ring closure, isolated yield: 34%

## Cc1ccc([S@@](=O)(F)=NC(=O)c2ccc(C(=O)N=[S@@](=O)(Oc3ccc(C(C)(C)c4ccc([O-])cc4)cc3)c3ccc(C)cc3)cc2)cc1 [(S,S)-3w]
[2]; 21-membered ring
  ring closure, isolated yield: 62%

## Cc1ccc([S@@](=O)(F)=NC(=O)c2ccc(C(=O)N=[S@@](=O)(Oc3ccc(C(c4ccc([O-])cc4)(C(F)(F)F)C(F)(F)F)cc3)c3ccc(C)cc3)cc2)cc1 [(S,S)-3x]
[2]; 21-membered ring
  ring closure, isolated yield: 33%

## Cc1ccc([S@@](=O)(F)=NC(=O)c2ccc(-c3ccc(C(=O)N=[S@@](=O)(Oc4ccc(C(C)(C)c5cccc(C(C)(C)c6ccc([O-])cc6)c5)cc4)c4ccc(C)cc4)cc3)cc2)cc1 [(S,S)-3y]
[2]; 29-membered ring
  ring closure, isolated yield: 37%

## Cc1ccc([S@@](=O)(F)=NC(=O)c2ccc(-c3ccc(C(=O)N=[S@@](=O)(Oc4ccc(Cc5ccc([O-])cc5)cc4)c4ccc(C)cc4)cc3)cc2)cc1 [[1+1] of 4f (not observed)]
[2]; 25-membered ring
  ring closure, isolated yield: 0%

## Cc1ccc([S@@](=O)(F)=NC(=O)c2ccc(-c3ccc(C(=O)N=[S@@](=O)(Oc4ccc(Oc5ccc([O-])cc5)cc4)c4ccc(C)cc4)cc3)cc2)cc1 [[1+1] of 4g (not observed)]
[2]; 25-membered ring
  ring closure, isolated yield: 0%

## Cc1ccc([S@@](=O)(F)=NC(=O)c2ccc(-c3ccc(C(=O)N=[S@@](=O)(Oc4ccc(C(C)(C)c5ccc([O-])cc5)cc4)c4ccc(C)cc4)cc3)cc2)cc1 [[1+1] of 4i (not observed)]
[2]; 25-membered ring
  ring closure, isolated yield: 0%

## Cc1ccc([S@@](=O)(F)=NC(=O)c2ccc(-c3ccc(C(=O)N=[S@@](=O)(Oc4ccc(C(c5ccc([O-])cc5)(C(F)(F)F)C(F)(F)F)cc4)c4ccc(C)cc4)cc3)cc2)cc1 [[1+1] of 4j (not observed)]
[2]; 25-membered ring
  ring closure, isolated yield: 0%
